“Also recorded” adds a separate entry of the source.
Tests used:
[1] = test system: AR(−)/IL1β(+) human prostate cancer cells; experiment: skeletal metastasis model: human prostate cancer cells inoculated via the left cardiac ventricle of mice; assay type: in vivo, mouse; conditions: subcutaneous anakinra from 24 hours before inoculation, then daily, FIGS. 3A-3B
Method: Male C.B17-SC mice (Taconic) at six to eight weeks of age were anesthetized with ketamine (80 mg/kg) and xylazine (10 mg/kg) prior being inoculated with cancer cells via the left cardiac ventricle. For anakinra treatment, animals received an initial subcutaneous dose of vehicle (PBS) or anakinra (Swedish Orphan Biovitrum) 24 hours prior to cancer cell inoculation, then additional doses at the time of xenograft and daily thereafter until sacrifice.
Prior to each weekly imaging session, animals were injected IP with 150 mg/kg D-Luciferin (PerkinElmer) and allowed to rest for ten minutes, then anesthetized using 3% isoflurane and transferred to the chamber of an IVIS Lumina XR (PerkinElmer), where they received 2% isoflurane throughout image acquisition. […]
Fluorescent images of skeletal metastases were collected as described in Liu et al., 2013, Cancer Res. 73:3297-305. In experiments assessing arrival/colonization of the bone, animals were sacrificed and femora and tibia were imaged and processed using Nuance software and a standardized spectral library and total GFP-positive DTCs counted in the knee joint of each animal. Lung tissues from the same animals were sectioned at 80 μm at intervals across the organ and images of five random fields analyzed as described. […]

[2] = test system: human bone mesenchymal stem cells; experiment: induction of Carcinoma Associated Fibroblasts phenotype in human bone mesenchymal stem cells by IL1β or PC3-ML conditioned medium; assay type: cell-based; conditions: hMSCs exposed to IL1β or conditioned medium from PC3-ML cells
Method: DU-145, 22Rv1. LNCaP, and VCaP human prostate cancer cell lines were purchased from ATCC: the PC3-ML cell line was derived from the parental PC-3 cell line as described in Wang M, Stearns M E, Isolation and characterization of PC-3 human prostatic tumor sublines which preferentially metastasize to select organs in S.C.I.D. mice. Differentiation. 1991; 48:115-25. All cell lines were authenticated by short tandem repeat profiling by IDEXX Radil and/or DDC Medical. Cells were cultured in Dulbecco's Modified Eagle Medium (DU-145, VCaP, and PC3-ML) or RPMI-1460 (22Rv1 and LNCaP) containing 10% fetal bovine serum and 0.1% gentamicin. Bone marrow-derived Human Mesenchymal Stem cells (Lonza) were used between passage 5 and 8 and cultured in α-MEM supplemented with 10% FBS, 1 ng/ml bFGF (R&D), and 0.1% gentamicin. Each cell line was cultured at 37° C. and 5% CO2 and discarded 10 passages following thawing. […]
Cell lysates were obtained and Western Blotting analysis was performed as previously described. […] Chemiluminescent signals were obtained using SuperSignal West Femto substrate (Pierce) and detected with the Fluorochem 8900 imaging system and related software. […]

interleukin-1β = conditions: cited from earlier work
[3] = test system: other members of the interleukin-1 family, including interleukin-1 alpha; conditions: cited from earlier work
[4] = test system: mouse models of acute gout; conditions: in vivo; cited from earlier work

## anakinra: recombinant, non-glycosylated version of human IL1 receptor antagonist prepared from cultures of genetically modified E. coli
[1]
  progression at the skeletal level of human prostate cancer cells (bone metastatic tumor burden): significantly impaired; also recorded: much less prone to skeletal colonization
[2]; FIG. 4A
  morphological changes in alpha smooth muscle actin (CAF phenotype): inhibited
[2]; FIG. 4B
  expression of the S100 A4 marker (CAF phenotype): inhibited

## CSc1ccc(-c2nn(Cc3ccccc3)c(=O)cc2-c2ccc(Cl)cc2)cc1 [K-832, 2-benzyl-5-(4-chlorophenyl)-6-[4-(methylthio)phenyl]-2H-pyridazin-3-one]
interleukin-1β
  inhibitory activity against production of interleukin-1β: high inhibitory activity

## Canakinumab: a human monoclonal antibody targeted at interleukin-1 beta
[3]
  cross-reactivity with other members of the interleukin-1 family: no cross-reactivity

## XOMA-052: a potent anti-IL1β humanized neutralizing antibody
[4]
  activity in mouse models of acute gout: active

Reference: US10517933B2, “Method of treating androgen receptor negative prostate tumors and their metastases” (DREXEL UNIVERSITY, priority 2015, dated 2019)
